{"source": "paper PMC3707518", "about": "(Journal of nuclear medicine : official publication, Society …, 2010)", "key": {"β2*-nAChRs [1]": {"target": "T1, β2*-nAChRs (Homo sapiens, UniProt P17787)", "T1 sequence (P17787 26-502)": "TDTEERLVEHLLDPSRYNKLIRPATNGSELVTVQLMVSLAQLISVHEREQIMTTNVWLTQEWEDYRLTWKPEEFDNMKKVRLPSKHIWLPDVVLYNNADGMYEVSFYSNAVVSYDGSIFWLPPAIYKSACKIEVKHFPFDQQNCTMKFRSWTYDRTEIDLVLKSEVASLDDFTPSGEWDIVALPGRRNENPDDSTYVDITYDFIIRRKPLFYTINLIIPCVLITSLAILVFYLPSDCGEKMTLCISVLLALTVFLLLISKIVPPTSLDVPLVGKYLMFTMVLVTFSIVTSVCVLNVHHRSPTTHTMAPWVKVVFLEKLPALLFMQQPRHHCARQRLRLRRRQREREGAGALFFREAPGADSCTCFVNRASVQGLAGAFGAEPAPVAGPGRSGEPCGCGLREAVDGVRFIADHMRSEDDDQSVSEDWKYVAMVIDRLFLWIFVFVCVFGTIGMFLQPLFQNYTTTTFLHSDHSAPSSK", "test": "^123I-5-IA SPECT regional uptake", "assay_type": "in vivo"}, "β2*-nAChRs [2]": {"system": "β2*-nAChRs", "settings": "nonhuman primates, cited from earlier work"}, "[3]": {"settings": "cited from earlier work"}, "β2*-nAChRs [4]": {"target": "T1, β2*-nAChRs", "settings": "3 h after smoking challenge; representative subject, Fig. 4"}, "β2*-nAChRs [5]": {"target": "T1, β2*-nAChRs", "settings": "3.1 h; cited from earlier work"}, "[6]": {"settings": "dependent smokers; cited from earlier work"}, "[7]": {"test": "Plasma nicotine and cotinine levels, smoking challenge and abstinence check"}, "β2*-nAChR": {"system": "β2*-nAChR", "settings": "cited from earlier work"}}, "note": "Values joined by “and” are separate entries in the source; they are usually repeats but may differ in a detail not shown here. Identical values can stand only once.", "data": [{"smiles": "[123I]c1cncc(OC[C@@H]2CCN2)c1", "note": "[^123I-5-IA, 5-^123I-iodo-85380]", "values": [{"measurement": "Nondisplaceable uptake VND/fp", "setting": "β2*-nAChRs [1]; average and range across subjects, brain, after smoking to satiety", "result": "19.4 ± 5.8 mL·cm^−3 and 15–28 mL·cm^−3"}, {"measurement": "Average VND without correcting for fp", "setting": "β2*-nAChRs [1]; not corrected for plasma free fraction", "result": "7.03 ± 1.92", "unit": "kBq/cm^3"}, {"measurement": "Nondisplaceable binding in the thalamus", "setting": "β2*-nAChRs [2]; inferred from specific binding", "result": "about 30%"}, {"measurement": "Specific binding in the thalamus", "setting": "β2*-nAChRs [2]", "result": "about 70%"}, {"measurement": "Safety", "setting": "[3]", "result": "safe and nontoxic"}]}, {"smiles": "CN1CCC[C@H]1c1cccnc1", "note": "[nicotine]", "values": [{"measurement": "Maximal occupancy", "setting": "β2*-nAChRs [4]", "result": 69.1, "unit": "%"}, {"measurement": "Nicotine in blood at the time of greatest occupancy", "setting": "β2*-nAChRs [5]", "result": "less than 4 ng/mL"}, {"measurement": "Time for nicotine from tobacco smoke to reach the brain after inhalation", "setting": "[6]", "result": "≤ 30", "unit": "s"}, {"measurement": "Time of highest nicotine concentration", "setting": "[7]; after initiation of tobacco smoking, representative subject, Fig. 2B", "result": 20, "unit": "min"}, {"measurement": "Blood nicotine area under curve (60 min)", "setting": "[7]; after smoking to satiety, individual subjects 1-10 and mean ± SD", "result": "4,864.0 and 3,764.0 and 8,273.0 and 8,124.0 and 8,544.3 ± 7,068.8 and 3,470.0 and 7,153.0 and 7,840.0 and 27,700.0 and 4,488.0 and 9,767.0"}]}, {"smiles": "c1cncc(OC[C@@H]2CCN2)c1", "note": "[A-85380, 3-[2(S)-2-azetidinylmethoxy]pyridine]", "values": [{"measurement": "Affinity", "setting": "β2*-nAChR", "result": "high affinity"}, {"measurement": "Selectivity for the β2*-nAChR", "setting": "β2*-nAChR", "result": "high selectivity"}]}]}
